Where no end group is shown, it is not given here.
Legend:
CCKAR = assay: Ca^2+ imaging, CCKAR‐HEK293T cells; assay type: cell-based, human; settings: Fluo‐8 AM, Ringer's solution pH 7.4, ΔF/F 0, n = 10, Dunnett's test vs. 0 nM
Protocol: (§1) HEK293T cells (Lenti‐X 293T Cell line; TaKaRa, Shiga, Japan) were maintained in Dulbecco's Modified Eagle Medium (DMEM; Fujifilm Wako Pure Chemical Industries, Osaka, Japan) supplemented with 10% fetal bovine serum (Biowest, Nuaillé, France), 1% non‐essential amino acids (NEAA) (Fujifilm Wako Pure Chemical Industries), and 1% penicillin–streptomycin (P/S) (Fujifilm Wako Pure Chemical Industries) and cultured in non‐coated culture plates at 37 °C and in an incubator with 5% CO2. The culture medium was replaced every 2–3 days. At 80–90% confluence, the cell colonies were digested into single cells using TrypLE Express (Thermo Fisher Scientific). The resulting cells were used for lentiviral transfection and agonist experiments.
(§2) Figure S1 presents the protocol used for this experiment. Lentiviral vectors were acquired from VectorBuilder (VectorBuilder Japan, Inc., Kanagawa, Japan). […]
(§3) Transduced HEK293T and neurons were incubated with 10 μM Fluo‐8 AM, a calcium indicator (AAT Bioquest, Pleasanton, CA, USA), in each culture medium (Cell lines and cell culture and Induction to parasympathetic neurons sections) at 37 °C for 30 min. […] Fluorescence (excitation: 490 nm, emission: 525 nm) was detected using a confocal spinning disk confocal laser scanning unit (CSU‐W1; Yokogawa Electric, Tokyo, Japan) and an LED light (X‐Cite 120LED; Opto Science, Tokyo, Japan). […]

GLP2R‐neurons = assay: Ca^2+ imaging, directly transduced GLP2R‐neurons; assay type: cell-based, human; settings: 100 nM GLP2; GLP2R‐neurons (transduced during differentiation) day 35; Fluo‐8 AM; n = 20
Protocol: (§4) Before initiating differentiation, the iPSCs (1–2 × 10^5 cells·cm^−2; Cell lines and cell culture section) were transferred to 6‐well plates (Corning, Inc., Corning, NY, USA) coated with 2‐methacryloyloxyethyl phosphorylcholine (MPC) polymer (Lipidure CM5206E; NOF, Tokyo, Japan). The cells were maintained in mTeSR1 cGMP medium containing 10 μM Y‐27632 (Fujifilm Wako Pure Chemical Industries) for 2 or 3 days to form embryoid body (EBs) in a rotary shaker at 95 r.p.m. (OS‐762RC; Optime, Tokyo, Japan). Subsequently, iPSCs were differentiated into neural crest cells (NCCs), as previously reported. Briefly, NCCs were induced from Ebs using knockout serum replacement (KSR) medium and N2 medium with graded addition of nerve growth factors and signaling factors. KSR medium was composed of DMEM‐F12 (Fujifilm Wako Pure Chemical Industries), 20% KSR (Thermo Fisher Scientific), 1% NEAA, 1% monothioglycerol (Fujifilm Wako Pure Chemical Industries), and 1% P/S. N2 medium consisted of DMEM‐F12, 1% N2 supplement (Fujifilm Wako Pure Chemical Industries), 1% NEAA, and 1% P/S. When EB formation was considered day 0 of induction, the medium was changed at days 2, 5, 7, 9, and 12. […]

GLP2R = assay: Ca^2+ imaging, GLP2R‐HEK293T cells; assay type: cell-based, human; settings: Fluo‐8 AM, Ringer's solution pH 7.4, ΔF/F 0, n = 20
Protocol: as §1, §2, §3

HTR3A‐neurons = assay: Ca^2+ imaging, directly transduced HTR3A‐neurons; assay type: cell-based, human; settings: 100 μM 5‐HT; HTR3A‐neurons (transduced during differentiation) day 35; Fluo‐8 AM; n = 20; Student's t‐test vs. 0 μM
Protocol: as §4

rat nodal ganglion cells = settings: various concentrations; ref [31], [32], [33], [34]; cited from earlier work
Description: Previous reports indicate that rat nodal ganglion cells respond to various concentrations of hormones, including CCK, GLP1, PYY, and 5‐HT [31, 32, 33, 34]. […] However, it is noteworthy that the overexpression of these receptors in our model may not reconstruct natural expres ...

HTR3A = assay: Ca^2+ imaging, HTR3A‐HEK293T cells; assay type: cell-based, human; settings: Fluo‐8 AM, Ringer's solution pH 7.4, ΔF/F 0, n = 10
Protocol: as §1, §2, §3

CCKAR‐neurons [1] = assay: MEA recording of neuronal firing, CCKAR‐neurons; assay type: cell-based, human; settings: 100 nM vs. 0 nM CCK‐33: P = 0.018; day 27; 0 nM n = 128 electrodes, 100 nM n = 57 electrodes; 5 min before and after ligand addition
Protocol: as §4

CCKAR‐neurons [2] = assay: Ca^2+ imaging, CCKAR‐neurons (iPSC‐derived); assay type: cell-based, human; settings: 100 nM CCK‐33; CCKAR‐neurons day 35; Fluo‐8 AM; ΔF stim/F 0; n = 20; Student's t‐test vs. 0 nM
Protocol: as §4

For “CCK‐8: CCK‐Octapeptide (26–33) (CCK‐8) (4100‐v; Peptide Institute, Inc.) (DYMGWMDF; ends and bridges not checked; UniProt P06307 96-103, looked up)”, which “Concentration giving response (change in intracellular Ca^2+ concentration)” value (CCKAR) is on record?
Its value is > 10 nM.

What does the source list for “GLP2: GLP2 (4276‐v; Peptide Institute, Inc.) (HADGSFSDEMNTILDNLAARDFINWLIQTKITD; Glucagon-like peptide 2; UniProt P01275 146-178, looked up)”?
Percentage change in fluorescence intensity (GLP2R‐neurons): 3%; Response in Ca^2+ imaging (GLP2R‐neurons): responded slightly; Concentration giving response (Ca^2+ imaging) (GLP2R): > 100 nM

For NCCc1c[nH]c2ccc(O)cc12 [5‐HT, 5‐hydroxytryptamine], which “Intracellular Ca^2+ concentration” value (HTR3A‐neurons) is on record?
Its value is “increased intracellular Ca^2+ concentration”.

What about the “Response of rat nodal ganglion cells” value (rat nodal ganglion cells) of the same compound?
Its value is “respond”.

What about the “Concentration giving response (intracellular Ca^2+ concentration)” value (HTR3A) of the same compound?
Its value is > 10 µM.

For “CCK‐33: CCK‐33 (4201‐s; Peptide Institute, Inc.) (KAPSGRMSIVKNLQNLDPSHRISDRDYMGWMDF; ends and bridges not checked; UniProt P06307 71-103, looked up)”, which “Neuronal firing frequency change rate” value (CCKAR‐neurons [1]) is on record?
The value was “significantly increased the neuronal firing frequency change rate”.

And the “Intracellular Ca^2+ concentration” value (CCKAR‐neurons [2])?
Its value is “significantly increased the intracellular Ca^2+ concentration”.

And the “Concentration giving response (change in intracellular Ca^2+ concentration)” value (CCKAR)?
Its value is > 100 nM.
